Measured values published in paper PMC10732398 (PLOS Pathogens, 2023).

Columns and labels:
⍺4β7 = assay: SPR binding kinetics: recombinant ⍺4β7 passed over ligand-coated surfaces (S1 Table); conditions: SPR Biacore 3000, ligand immobilized, ⍺4β7 analyte, HBS pH 7.4, 1 mM MnCl2, 25°C
Protocol: To measure the specific affinity of CD4–⍺4β7 interactions we developed a surface plasmon resonance (SPR) -based assay in which recombinant ⍺4β7 was passed over a surface coated with a 23 kD D1D2 protein (aa 1–183). For comparison we prepared surfaces with recombinant MAdCAM-Ig, VCAM-Ig, monomeric gp120, and a SOSIP env trimer (S1 Table). Assays were carried out in the presence of MnCl2 to present ⍺4β7 in an active conformation. […] This rate of dissociation was similar to that of both MAdCAM-Ig and VCAM-Ig with ⍺4β7 and is indicative of a relatively high-affinity interaction.
Experiments were performed using a Biacore 3000 instrument (Cytiva Life Sciences) using CM4 or CM5 sensor chips. The data were evaluated using BIAevaluation 4.1.1 software (Cytiva Life Sciences). The chip surface was activated by injecting 35 μl of a 1:1 mixture of 0.05 M N-hydroxysuccinimide and 0.2 M N-ethyl-N-(dimethylaminopropyl) carbodiimide at 5 μl/min. NeutrAvidin, HIV gp120, sCD4 (D1D2) or Hu-MAdCAM-Ig (R&D Systems) at concentrations of 5 μg/ml in 10mM NaOAc, pH 4.5, were immobilized to 250–750 resonance units (RU). After the proteins were immobilized to the desired densities, unreacted sites were blocked with 35 μl of 1 M Tris-HCl (pH 8.0). Biotinylated cyclic V2 peptides (1 μg/ml in 20 mM Tris-HCl, pH 8.0) were bound to the NeutrAvidin surfaces to densities of approximately 250–300 RU. One surface was activated and blocked without ligand as a control surface for non-specific binding. Signal from the control surface was subsequently subtracted. Running buffer was HBS (pH 7.4), 1 mM MnCl2, 0.005% Tween- 20, 0.05% soluble carboxymethyl-dextran. Binding experiments were carried out at a flow rate of 25 μl/min at 25°C. After a 2 min injection, the surface was washed for an additional 2 min in running buffer allowing dissociation of the bound ligand from the surface. The surfaces were regenerated by multiple injections of 4.5 M MgCl2 at a flow rate of 100 μl/min. Inhibition of ⍺4β7 binding by linear V2-loop and CD4 derived peptides was carried out by pre-incubating ⍺4β7 with the peptides in running buffer at the indicated concentrations for 2 hours at room temperature prior to passing them over the prepared surfaces as described above. Cross-inhibition experiments were performed by passing either buffer or the listed analytes over a surface to which sCD4 (D1D2) had been immobilized, followed by a secondary sequential injection of ⍺4β7. The ability of each analyte to inhibit either itself or ⍺4β7 was determined by comparing the binding of ⍺4β7 in the absence or presence of the listed pre-bound analytes as previously described. Illustration of the dynamic range of range of linear peptide inhibition assays is provided in S4 Fig.

⍺4β7 on RPMI8866 cells = assay: Flow cytometry: ligand staining of ⍺4β7-expressing cells in buffers with different divalent cations; type: binding, human; conditions: absence of divalent cations (0.1 mM EDTA)
Excerpt: Fig 1 Binding of soluble CD4 to ⍺4β7 on CD4^+ T cells. (A) Schematic of D1D2-Ig⍺tp. (B) Flow-cytometry histogram of PE-conjugated D1D2-Ig⍺tp staining of CD4^+ T cells alone (blue) or in the presence of either the anti ⍺4 mAb 2B4 (green) or an irrelevant mAb (black-dashed). Cells stained with PE-conjugated MicA-Ig⍺tp (red), along with unstained cells (grey) are included. X-axis indicates geometric mean fluorescence intensity (gMFI). (C) 293T cells untransfected or co-transfected with ⍺4 and β7 expression vectors stained with either PE-D1D2-Ig⍺tp or PE-MAdCAM-Ig in the absence or presence of the ⍺4 antagonist FG. Y-axis indicates gMFI. (D) CD4^+ T cells stained with anti CD45RO (x-axis) anti β7 (y-axis) (left), or with anti CD45RO (x-axis) and D1D2-Ig⍺tp (y-axis) (right). % cells in each quadrant, as indicated. (E) CD4^+ T cells stained as in B, with lower MW forms of oligomerized D1D2-Ig⍺tp. Left Y-axis indicates gMFI (bars), right Y-axis indicates relative MW (kDa) (•). […]
Cells were stained with fluoresceine conjugated mAbs or recombinant proteins using standard procedures preceded by Fc receptor blocking with human IgG. […] Data were acquired using a FACSCanto II (BD Biosciences) and analyzed with FlowJo software (BD Biosciences). […]

**Q.** Which results are given for “MAdCAM-Ig: recombinant MAdCAM-1 Ig fusion, R&D Systems [reference compound]”?
**A.** KA (⍺4β7): 1.12e+08 M⁻¹; ka (⍺4β7): 96700 M⁻¹ s⁻¹; kd (⍺4β7): 0.000863 s⁻¹; binding to ⍺4β7 (in words) (⍺4β7 on RPMI8866 cells): failed to bind
